Reference: US9999620B2, “CaMKK-β as a target for treating cancer” (Duke University, priority 2010, dated 2018)

Columns and labels:
Format in all cases: cell-based, human
LNCaP cells [1] = experiment: Cell proliferation assay (FluoReporter Blue DNA content); conditions: +/-1 nM R1881 and +/-30 mM STO-609 on d 3, d 5, d 7, read on d 10
Protocol: (§1) FIG. 7. CaMKKβ activity in the androgen-mediated migration and invasion of prostate cancer cells. A, LNCaP cells were plated in 96-well plates and grown for 3 d. […] On d 10, cells were lysed and the relative number of cells was measured with the fluorescent DNA binding dye FluoReporter Blue. Each sample was performed in triplicate, and results from a representative experiment are shown. […] Cells were then dissociated and reseeded into the top chamber for a Boyden migration or Matrigel extracellular matrix invasion assay. Fresh medium with the corresponding treatments was added to the top and bottom chambers while either no chemoattractant or 5% FBS (serum) was added to the bottom chamber. After 16 h, migrated cells were fixed, stained and counted in three different microscopic fields and added together. […] C top, LNCaP cells were transfected with indicated siRNAs. […] D right, LNCaP cells stably expressing either GAL4 (control) or CaMKKβ were subjected to a migration assay as described in B using +/−5% FBS as chemoattractant. The results are expressed as mean+SE (n=3). *, significant changes from LNCaP-GAL4 cells. D left, western blot confirming CaMKKβ […]expression. […] Proliferation assays were performed as previously described (12) by measuring the cellular DNA content using the FluoReporter Blue Fluorometric double-stranded DNA Quantitation Kit (Invitrogen) as per the manufacturer's protocol.

LNCaP cells [2] = experiment: Boyden dual chamber migration assay; conditions: 1 h +/-30 mM STO-609, overnight +/-10 nM R1881, 16 h migration, 5% FBS chemoattractant
Protocol: as §1, with “+/-5%” for “+/−5%”, “[…]expression. FIG. 11. Androgen-mediated migration occurs through a CaMKKβ-AMPK-dependent pathway.” for “[…]expression.”, “Results are expressed” for “Proliferation assays were performed”, “fold induction/phosphorylation over double vehicle-treated cells+SE (n=3). *, significant changes from vehicle-treated cells. […] Results are expressed” for “previously described (12) by measuring the cellular DNA content using the FluoReporter Blue Fluorometric double-stranded DNA Quantitation Kit (Invitrogen)”, “fold induction/phosphorylation over LNCaP-GAL4 vehicle-treated cells+SE (n=3). *, significant changes from LNCaP-GAL4 vehicle-treated cells. […] The results are expressed as mean±SE (n=2). *, P<0.05 indicates significant changes from double vehicle-treated cells. ^#, P<0.05 indicates significant decreases from vehicle (no compound C)-treated cells. […] ACC is a direct target of AMPK and thus, was used as a readout of AMPK catalytic activity. […] Results are expressed as fold induction/phosphorylation over double vehicle-treated cells+SE (n=2). *, P<0.05 indicates significant changes from double vehicle-treated cells. […]” for “per the manufacturer's protocol.”

VCaP cells = experiment: Boyden dual chamber migration assay; conditions: 1 h +/-30 mM STO-609, overnight +/-10 nM R1881, 16 h migration, 5% FBS chemoattractant
From the text: FIG. 6. CaMKKβ activity in androgen-mediated cell migration in prostate cancer cells. […] Cell lysates were then subjected to western blot analysis and subsequent densitometry (right). Phospho-[…]) levels were normalized to total CaMKI. Results are expressed as fold induction/phosphorylation over double vehicle-treated cells+SE (n=2). *, P<0.05 indicates significant changes from vehicle-treated cells. ^#, P<0.05 indicates significant changes from vehicle (no STO-609)-treated cells. B, VCaP cells were plated in 96-well plates and grown for 3 d. […] On d 10, cells were lysed and the relative number of cells was measured with the fluorescent DNA binding dye FluoReporter Blue. Each sample was performed in triplicate, and results from a representative experiment are shown. […] Cells were then dissociated and reseeded into the top chamber for a Boyden dual chamber migration assay. Fresh medium with the corresponding treatments was added to the top and bottom chambers while either no chemoattractant or 5% FBS (serum) was added to the bottom chamber. After 16 h, migrated cells were fixed, stained with crystal violet and counted in three different microscopic fields and added together. […]

O=C(O)c1ccc2c3c1cccc3c(=O)n1c3ccccc3nc21 [STO-609]
effect on cell number (androgen-mediated cellular growth) (LNCaP cells [1]): no significant effect
androgen-mediated migration (LNCaP cells [2]): blocked the androgen-mediated migration
androgen-mediated migration (VCaP cells): blocked the androgen-mediated migration
